Experimental data from patent US20150203471A1, “METHODS FOR IMPROVING CHICKEN PRODUCTION” (ELI LILLY AND COMPANY, priority 2012, published 2015).
Where a name gives a salt, the structure may show the parent alone. Read-outs that look alike come from different tables or passages of the source.

How the values were obtained:
male broilers [1] = experiment: Study 1: growth performance and carcass responses of male broilers, compounds in feed vs positive and negative controls; format: in vivo, chicken; details: 14 days; for change in vivo at 15 ppm, 15 µg/mL: Gallus gallus, feed or water, 336 h
Text: An objective of this study is to evaluate growth performance and carcass responses of male broilers by comparing non-zero dosages of the above compounds versus a positive control (Compound 1) and negative controls. Table 1 sets out the specific treatment groups:
(§1) The route of administration is oral, with the compounds mixed in feed, and provided Ad libitum. The age of the chickens of Day 1 of the study is 35 days old. Body weights are taken on the following days: • 1) Study Day 1 (pen weight) • 2) Study Day 14 (individual animal weights) • 3) Study Day 15 (individual weights on selected animals) • 4) Study Day 16 (blocks 1-5) • 5) Study Day 17 (blocks 6-10).
(§2) Following collection of final weights, the following processing data is collected (hot weights) on individual animals: • 1) Live weight • 2) Hot carcass weight • 3) Fat pad weight • 4) Hot breast muscle weight • 5) Hot bone in leg weight

male broilers [2] = experiment: Study 2: growth performance and carcass responses of male broilers, compounds in feed in the last 14 days prior to slaughter; format: in vivo, chicken
Protocol: Compounds 2, 5, and 9 are used in this study. The study is conducted to evaluate growth performance and carcass responses of male broilers by comparing non-zero dosages of the compounds, versus negative control, administered in the last 14 days prior to slaughter. Table 3 sets out the specific treatment groups.
as §1, with “15” for “14”, “16” for “15”, “animals in animals in blocks 1-4)” for “animals)”, “Day” for “Day 16 (blocks 1-5) • 5) Study Day”, “(individual weights on selected animals in animals in blocks 5-8)” for “(blocks 6-10).”
as §2

[3] = test system: Hubbard M99 X Cobb chicks; experiment: Study 3: dose response in live performance and carcass yields of commercial broilers raised to a small-size market; format: in vivo, chicken
Protocol: This study is conducted to determine the dose response of the Compound 5 measured in live performance and carcass yields of commercial broilers raised to a small-size market when fed a “typical” feed. 2400 Hubbard M99 X Cobb chicks (1200 male/1200 female) are used in this study. Compound 5 is administered at the following doses: 0, 2, 4, 8, and 16 ppm, orally in feed, beginning when the chicks are 24 days of age and ending when the chicks are 38 days of age. The five different Compound 5 doses are administered in a mash diet formulated to meet all nutrient recommendations using only commercially available ingredients.
Parameters measured in the study include ADG (average daily gain), ADFI (average daily feed intake), GE (gain efficiency), and FE (feed efficiency). The birds are measured for carcass (without giblets), breast muscle (boneless-skinless), and leg-quarter weights. The live body weight on the day of processing is used to calculate the yields for carcass, breast meat, and leg quarters for the birds.

[4] = test system: Ross X Ross 708 male chicks; experiment: Study 4: live performance and carcass traits of broilers; format: in vivo, chicken; details: 16 ppm in feed vs 0 ppm, 34 to 48 days of age
Protocol: (§3) This study is conducted to investigate the effects of Compound 5 on live performance and carcass traits of broilers, and to evaluate the emission of various gases from broilers provision of feed with or without Compound 5. Ross X Ross 708 male chicks are used in this study. Compound 5 is administered at the following doses: 0 and 16 ppm, orally in feed, beginning when the chicks are 34 days of age and ending when the chicks are 48 days of age. The Compound 5 doses are administered in a mash diet formulated to meet all nutrient recommendations using only commercially available ingredients.
(§4) Parameters measured in the study include ADG, ADFI, and FCR. The birds are measured for carcass (without giblets), breast muscle (boneless-skinless), leg-quarter, and abdominal fat weights. The live body weight on the day of processing is used to calculate the yields for carcass, breast meat, and leg quarters for the birds. Also measured are emissions of various gases. Cumulative gas emission are monitored and calculated for the following gases: NH3, NO, NO2, H2S, SO2, methane/non-methane total hydrocarbon, O2, and CO2. The efficacy of Compound 5 is determined by the cumulative emission of these gases, as well as by standardizing these cumulative values to their body, carcass, breast meat, and leg-quarter weights.

[5] = test system: Ross X Ross 708 male chicks; experiment: Study 4: cumulative gas emission from broilers; format: in vivo, chicken; details: 16 ppm in feed, 34 to 48 days of age, compared to untreated birds
Protocol: as §3, §4

[6] = Ames assay (mutagenicity); format: cell-based; details: compared with the other compounds tested
Zebrafish = Zebrafish assay (teratogenesis/chromosomal impact); format: in vivo; details: compared with the other compounds tested
[7] = 15 ppm in feed ad libitum, male broilers, percent change from negative control, * in cell = not significant
[8] = 0, 2, 4, 8, 16 ppm in feed, 24 to 38 days of age
[9] = 0, 2, 4, 8, 16 ppm in feed, 24 to 38 days of age, male and female chicks

SMILES: CC(C)(Cc1ccc(Oc2ccccn2)cc1)NC[C@H](O)COc1cccc2c1C(C)(C)C(=O)N2 [Compound 5, 4-[{(2S)-3-({1,1-dimethyl-2-[4-(pyridin-2-yloxy)phenyl]ethyl}amino)-2-hydroxypropyl]oxy}-3,3-dimethyl-1,3-dihydro-2H-indol-2-one hydrochloride]
- Ave daily live wt gain % inc. (male broilers [1]; [7]): 5.8%
- Breast wt % inc. (male broilers [1]; [7]): 6.0%
- Feed intake % inc. (male broilers [1]; [7]): 1.1* %
- Gain effic % inc. (male broilers [1]; [7]): 4.9%
- Leg wt % inc. (male broilers [1]; [7]): 8.1%
- Fat Pad wt % dec. (male broilers [1]; 15 ppm in feed ad libitum, male broilers, percent decrease from negative control, * in cell = not significant): 17.4%
- fat pad weight (in words) (male broilers [1]; 15 ppm in feed): reduce fat pad weight
- feed intake (in words) (male broilers [1]; 15 ppm in feed): significant increase in feed intake
- gain versus untreated control (in words) (male broilers [1]; 15 ppm in feed): significantly greater than untreated control
- significance of the fat pad weight difference (male broilers [1]; 15 ppm in feed): significant
- improvement versus negative control and positive control (in words) (male broilers [1]; 15 ppm in feed, positive control = Compound 1): significantly better improvement than both the negative control and the positive control
- change in vivo at 15 ppm, 15 µg/mL (male broilers [1]; 15 ppm in feed ad libitum, male broilers 35 days old at Day 1, percent change from negative control, * in cell = not significant vs negative control, read-out: ADG % inc.): 5.1%
- change in vivo at 15 ppm, 15 µg/mL (male broilers [1]; 15 ppm in feed ad libitum, male broilers, percent change from negative control, * in cell = not significant, read-out: Hot carcass wt % inc.): 5.8%
- ADG versus negative control group (male broilers [2]; 3.5 ppm in feed): significantly higher
- F/G ratio (feed:gain efficiency) versus negative control group (male broilers [2]; 3.5 ppm in feed): significantly lower
- G/F ratio (gain:feed efficiency) versus negative control group (male broilers [2]; 3.5 ppm in feed): significantly higher
- hot bone-in leg weight versus negative control group (male broilers [2]; 3.5 ppm in feed): significantly higher
- hot breast muscle weight versus negative control group (male broilers [2]; 3.5 ppm in feed): significantly higher
- hot carcass weight versus negative control group (male broilers [2]; 3.5 ppm in feed): significantly higher
- ADG versus negative control group (male broilers [2]; 7 ppm in feed): significantly higher
- F/G ratio (feed:gain efficiency) versus negative control group (male broilers [2]; 7 ppm in feed): significantly lower
- G/F ratio (gain:feed efficiency) versus negative control group (male broilers [2]; 7 ppm in feed): significantly higher
- hot bone-in leg weight versus negative control group (male broilers [2]; 7 ppm in feed): significantly higher
- hot breast muscle weight versus negative control group (male broilers [2]; 7 ppm in feed): significantly higher
- hot carcass weight versus negative control group (male broilers [2]; 7 ppm in feed): significantly higher
- leg-quarter weight [3, 8]: Improvements are observed
- leg-quarter yield [3, 8]: Improvements are observed
- FE (feed efficiency) [3, 9]: Improvements are observed
- GE (gain efficiency) [3, 9]: Improvements are observed
- dose response of the improvements (GE, FE, leg-quarter weight and yield) ([3]; doses 2, 4, 8, 16 ppm in feed): doses at above 2 ppm do not show additional benefit
- GE and FE by sex ([3]; male versus female broilers, 24 to 38 days of age): positively impacted only in female broilers
- live performance and carcass traits monitored [4]: improvements in all live performance carcass traits monitored, except for ADFI and mortality
- reduction in NH3 emission standardized to live weight of the birds or its saleable cuts [5]: more than 30%
- reduction of cumulative emission of H2S [5]: 19.0%
- reduction of cumulative emission of NH3 [5]: 29.2%
- Ames assay result (mutagenicity) [6]: better results
- Zebrafish assay result (teratogenesis/chromosomal impact) (Zebrafish): better results
